Reference: US6193985A, “Tocopherol compositions for delivery of biologically active agents” (priority 1994, dated 2001)
Where two headings read alike, the source gives them in different places.

Assays:
[1] = Source text: For the following, non-limiting, sparingly soluble drugs in water, the solubility in α-tocopherol and sesame oil are listed in Table 1:
Sesame oil was chosen as the reference, because it is a very commonly used and well tolerated vegetable oil. The solubilities in sesame oil and α-tocopherol were investigated by visual inspection of the saturation point.

[2] = cited from earlier work
[3] = cited from earlier work; remark: listed apart in the source
[4] = solubility in sesame oil (reference)

In the case of `CCCC1O[C@@H]2C[C@H]3[C@@H]4CCC5=CC(=O)C=C[C@]5(C)[C@H]4[C@@H](O)C[C@]3(C)[C@]2(C(=O)CO)O1` (stereo partly shown) [Budesonide, budesonide], the “g drug in 100 g of sesame oil” value [1, 4] is reported as less than 0.1 g drug in 100 g.

For `C(=C\c1ccccc1)/CN1CCN(C(c2ccccc2)c2ccccc2)CC1` [Cinnarizine, cinnarizine], the “solubility in water (in words)” value [2] is listed as “very low water solubility”, the “g drug in 100 g of sesame oil” value [1] is listed as 2-4 g drug in 100 g and the “g drug in 100 g of α-tocopherol” value [1] is listed as 11-18 g drug in 100 g. For the same compound, the oral bioavailability ([3]; if dissolved in a vehicle before administration) was “higher oral bioavailability”.

In the case of `CCN(CC)C(=S)SSC(=S)N(CC)CC` [Disulfiram, disulfiram], the “g drug in 100 g of α-tocopherol” value ([1]; solubility in α-tocopherol) is reported as 5 g drug in 100 g.

With `CCN(CC)CCNC(=O)c1cc(Cl)c(N)cc1OC` [Metoclopramide] the “g drug in 100 g of sesame oil” value [1] was less than 2 g drug in 100 g and the “g drug in 100 g of α-tocopherol” value [1] was 2-4 g drug in 100 g.

In the case of `Cc1ncc([N+](=O)[O-])n1CCOC(=O)c1ccccc1` [Metronidazole benzoate], the “g drug in 100 g of sesame oil” value [1, 4] is reported as less than 2 g drug in 100 g.

With `Clc1ccc(COC(Cn2ccnc2)c2ccc(Cl)cc2Cl)c(Cl)c1` (stereo not shown) [Miconazole, miconazole] the “g drug in 100 g of α-tocopherol” value ([1]; solubility in α-tocopherol) was 60 g drug in 100 g.

In the case of `Cc1ncc2n1-c1ccc(Cl)cc1C(c1ccccc1F)=NC2` [Midazolam, midazolam], the “g drug in 100 g of α-tocopherol” value ([1]; solubility in α-tocopherol) is listed as greater than 13 g drug in 100 g and the first-pass effect ([3]; after oral administration) is listed as “very high first-pass effect”.

For `CC(=O)[C@H]1CC[C@H]2[C@@H]3CCC4=CC(=O)CC[C@]4(C)[C@H]3CC[C@]12C` [Progesterone], the “g drug in 100 g of α-tocopherol” value ([1]; solubility in α-tocopherol) was greater than 30 g drug in 100 g.
